The subject of one test is HeLa cells. Details: method as in earlier work. The following applies: 48 h, ref [1]; cited from earlier work.
Test [1] deals with F21T (DNA, G4) GGGCTAGGGCTAGGGCTAGGG
Description: FRET melting. The following applies: 100 mM K+; 10 mM Tris-HCl, pH 7.35; 2.0 μM compound, 1.0 μM DNA.

The next test concerns MGC80-3 cells. Also on record: method as in earlier work. The note with it: MGC80-3, 48 h; ref [1]; cited from earlier work.
The target of a further test is T1, telomerase (Homo sapiens, UniProt O14746).
T1 construct: Each telomerase extract was prepared from BEL-; endogenous in cells; host or cells: BEL-7404 cell extract
T1 sequence (O14746 whole entry): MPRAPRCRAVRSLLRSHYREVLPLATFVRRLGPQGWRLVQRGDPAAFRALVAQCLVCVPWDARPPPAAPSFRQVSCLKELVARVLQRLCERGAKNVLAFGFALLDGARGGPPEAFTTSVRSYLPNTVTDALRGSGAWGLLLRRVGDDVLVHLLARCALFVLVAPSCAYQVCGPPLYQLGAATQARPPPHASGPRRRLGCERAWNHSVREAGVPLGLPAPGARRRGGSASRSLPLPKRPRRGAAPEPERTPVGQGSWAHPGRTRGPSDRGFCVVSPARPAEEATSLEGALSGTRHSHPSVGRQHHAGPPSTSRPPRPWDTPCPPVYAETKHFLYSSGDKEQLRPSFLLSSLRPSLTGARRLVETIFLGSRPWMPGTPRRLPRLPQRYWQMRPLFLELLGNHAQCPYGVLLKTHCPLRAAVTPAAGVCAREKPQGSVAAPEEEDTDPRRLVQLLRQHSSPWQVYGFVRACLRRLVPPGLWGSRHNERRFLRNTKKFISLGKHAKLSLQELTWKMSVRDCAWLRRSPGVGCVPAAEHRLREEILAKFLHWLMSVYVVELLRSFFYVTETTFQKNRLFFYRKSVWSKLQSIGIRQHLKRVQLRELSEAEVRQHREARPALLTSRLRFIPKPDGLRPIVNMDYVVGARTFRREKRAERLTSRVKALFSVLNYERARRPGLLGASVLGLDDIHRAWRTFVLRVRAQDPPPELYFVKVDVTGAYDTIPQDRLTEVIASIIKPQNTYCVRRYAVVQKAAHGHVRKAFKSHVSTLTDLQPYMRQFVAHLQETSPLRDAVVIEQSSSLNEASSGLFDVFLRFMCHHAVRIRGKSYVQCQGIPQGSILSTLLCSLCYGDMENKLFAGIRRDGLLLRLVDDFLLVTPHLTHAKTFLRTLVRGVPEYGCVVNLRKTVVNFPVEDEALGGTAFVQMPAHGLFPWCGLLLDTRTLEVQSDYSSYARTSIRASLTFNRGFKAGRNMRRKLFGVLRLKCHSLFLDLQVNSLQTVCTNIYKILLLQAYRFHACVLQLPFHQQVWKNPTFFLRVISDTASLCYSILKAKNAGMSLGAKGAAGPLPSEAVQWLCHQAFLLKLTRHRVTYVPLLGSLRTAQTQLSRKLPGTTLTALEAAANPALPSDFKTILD
T1 sequence (O60832 whole entry partner): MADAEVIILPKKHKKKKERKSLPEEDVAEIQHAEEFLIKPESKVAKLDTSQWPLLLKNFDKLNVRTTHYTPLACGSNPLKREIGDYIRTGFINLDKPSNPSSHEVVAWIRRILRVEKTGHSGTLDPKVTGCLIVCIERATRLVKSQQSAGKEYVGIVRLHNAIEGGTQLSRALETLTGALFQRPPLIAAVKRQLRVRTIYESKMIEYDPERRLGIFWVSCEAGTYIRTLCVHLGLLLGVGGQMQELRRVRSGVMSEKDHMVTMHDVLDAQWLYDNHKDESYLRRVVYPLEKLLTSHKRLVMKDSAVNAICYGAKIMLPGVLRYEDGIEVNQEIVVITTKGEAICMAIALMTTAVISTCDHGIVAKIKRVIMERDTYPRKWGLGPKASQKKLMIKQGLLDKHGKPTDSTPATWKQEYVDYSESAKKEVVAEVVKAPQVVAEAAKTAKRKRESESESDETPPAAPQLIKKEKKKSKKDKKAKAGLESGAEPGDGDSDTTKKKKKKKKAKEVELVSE
T1 sequence (Q9NPE3 whole entry partner): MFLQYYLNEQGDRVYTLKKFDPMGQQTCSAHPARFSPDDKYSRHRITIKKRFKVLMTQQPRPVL
T1 sequence (Q9NX24 whole entry partner): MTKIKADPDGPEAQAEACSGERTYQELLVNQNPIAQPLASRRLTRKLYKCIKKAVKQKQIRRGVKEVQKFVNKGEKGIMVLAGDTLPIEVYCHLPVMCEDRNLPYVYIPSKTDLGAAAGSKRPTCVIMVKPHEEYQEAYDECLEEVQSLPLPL
T1 sequence (Q9NY12 whole entry partner): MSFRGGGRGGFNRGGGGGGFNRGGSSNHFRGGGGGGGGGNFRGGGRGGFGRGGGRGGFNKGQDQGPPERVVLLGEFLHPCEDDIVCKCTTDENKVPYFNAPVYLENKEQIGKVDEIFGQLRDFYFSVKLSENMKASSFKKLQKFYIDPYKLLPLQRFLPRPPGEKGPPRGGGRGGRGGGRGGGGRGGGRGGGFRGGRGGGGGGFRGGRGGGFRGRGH
T1 sequence (Q9BUR4 whole entry partner): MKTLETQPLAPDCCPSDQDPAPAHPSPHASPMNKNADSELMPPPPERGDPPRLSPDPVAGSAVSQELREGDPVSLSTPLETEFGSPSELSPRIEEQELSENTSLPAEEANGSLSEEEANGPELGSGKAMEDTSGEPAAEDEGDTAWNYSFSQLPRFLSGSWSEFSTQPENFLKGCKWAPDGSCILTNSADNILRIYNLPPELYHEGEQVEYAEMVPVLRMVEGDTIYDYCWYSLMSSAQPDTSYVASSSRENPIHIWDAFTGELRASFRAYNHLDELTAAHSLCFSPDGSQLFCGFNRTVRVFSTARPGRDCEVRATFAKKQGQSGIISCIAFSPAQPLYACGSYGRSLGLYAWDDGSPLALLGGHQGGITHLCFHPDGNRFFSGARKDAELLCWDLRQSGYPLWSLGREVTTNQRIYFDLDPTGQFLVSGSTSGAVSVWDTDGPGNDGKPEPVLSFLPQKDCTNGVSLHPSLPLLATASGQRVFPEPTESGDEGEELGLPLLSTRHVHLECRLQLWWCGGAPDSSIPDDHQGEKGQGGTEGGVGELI
Description: TRAP assay (TRAP-silver staining assay). It is filed as biochemical. The note with it: BEL-7404 cells, 10 μM, 24 h. The text has this:
As mentioned above, G4s structures widely exist in telomeres, we therefore monitored the effect of chiral platinum(II) complexes on function and activity of telomerase. To address this, we first determined the effect of complexes 4–6 on the expression of some telomeric DNA-associated proteins. […] We next evaluated the activity of telomerase by TRAP assay.
Apoptosis analysis c-myc antibody, or anti-β-actin primary antibody and the Apoptosis was detected by flow cytometric analysis corresponding secondary antibody were used to detect of annexin V staining. Annexin V-FITC vs PI assay was target protein via standard washing and incubating steps. performed as previously described. Briefly, adherent Senescence induction and selective binding to NEL-7404 cells were harvested and suspended in the G4s by 4–6 in BEL-7404 cells annexin-binding buffer (5×10^5 cells/mL). Then, cells were incubated with annexin V-FITC and PI for 1.0 h at Staining for SA-β-Gal activity was carried out room temperature in the dark and immediately analyzed according to Moore and Chen reports. In brief, by flow cytometry. The data are presented as biparametric After the long-term incubation with complexes 4–6, the dot plots showing PI red fluorescence vs annexin V-FITC growth medium was aspirated and the BEL-7404 cells green fluorescence. were fixed in 2% formaldehyde/0.2% glutaraldehyde for 15.0 min at room temperature. […] Finally, the extraction, RT-PCR, and the selective binding to G4s by BEL-7404 cell cycle was determined with FACS Calibur complexes 4–6 was according to the our previous reported flow cytometer (BD) and analyzed using Cell Quest.
(BDIS) and ModFit LT (Verity Software House, Topsham, ME). Gene expression by a panel of genes for RT-Determination of caspase-3/9 activity by flow qPCR array cytometric analysis Differential expression of telomeres/telomerase-related genes was analyzed using the Telomeres & […]

Here are results for six compounds from PMC5617480 (Oncotarget, 2017).

For `O=C(NCC(O)CO)c1cnc2c3c(cccc13)-c1ccccc1C2=O.[Cl-].[Cl-].[Pt+2]` (racemic) [ligand 1, R/S-(±)-FOA], the results for the IC50 in the test with HeLa cells and in the test on MGC80-3 cells were 25.7 ± 2.2 µM and 32.4 ± 0.8 µM, respectively. For the same compound, the ΔTm in test [1] was 13.19 °C.
In the case of `O=C(NC[C@@H](O)CO)c1cnc2c3c(cccc13)-c1ccccc1C2=O.[Cl-].[Cl-].[Pt+2]` [ligand 2, R-(+)-FOA], the half-inhibitory concentration (IC50) in the test on HeLa cells is 28.5 ± 0.3 µM; with MGC80-3 cells, 45.8 ± 2.8 µM. Further, in test [1], the ΔTm is 12.95 °C.
For `O=C(NC[C@H](O)CO)c1cnc2c3c(cccc13)-c1ccccc1C2=O.[Cl-].[Cl-].[Pt+2]` [ligand 3, S-(–)-FOA], the IC50 in the test on HeLa cells is 22.9 ± 0.7 µM; in the test on MGC80-3 cells, 35.7 ± 2.9 µM. Besides, the ΔTm in test [1] is 20.07 °C.
As to cis-[PtCl2(R-(+)-FOA)] [complex 5], on telomerase, the “inhibitory ratio of telomerase activity” value is listed as 23.35%.
The same measure, in the same setting: then cis-[PtCl2(R/S-(±)-FOA)] [complex 4], with 63.03%; and cis-[PtCl2(S-(–)-FOA)] [complex 6], with 67.82%.

As a reminder, the IC50 is the concentration that inhibits the measured activity by half. Broadly, the ΔTm is the change in melting temperature against a reference sample.
